Seven molecules from patent US20130210817A1, “METHODS OF CONTROLLING NEONICOTINOID RESISTANT APHIDS” (SYNGENTA CROP PROTECTION LLC, priority 2010, published 2013) can be followed below.

The subject of data set [1] is neonicotinoid insecticide susceptible strain 4106A. Type of data set: in vivo. The note with it: mixed age aphids on chinese cabbage leaf discs, Potter Tower spray, mortality 72 hours after treatment; susceptible strain 4106A (Rothamsted Research). The method, then: (§1) The following bioassay methodology was utilized to generate the data included in the table:
(§2) 5 cm leaf discs were taken from fully expanded chinese cabbage leaves and placed with the underside facing upwards onto water agar in 5 cm Petri dishes. The leaf discs are infested with between 30 and 40 mixed age aphids 24 hours prior to insecticide treatment. The leaf surface is sprayed with the appropriate test solutions in a Burkhard Potter Tower at an approximate water volume of 450 l/ha. Test containers are stored at 21 °C, 60% RH and 16:8 light/dark. Aphids were assessed for mortality 72 hours after treatment.

Data set [2] has as its system neonicotinoid insecticide resistant aphid strain. In kind it is in vivo. The note with it: mixed age aphids on chinese cabbage leaf discs, Potter Tower spray, mortality 72 hours after treatment; resistant strain from peach orchard, Avignon region, 2009. The method, then: as §1, §2

Some results are limits rather than exact numbers.

As for `C/C(=N\C#N)N(C)Cc1ccc(Cl)nc1` [acetamiprid], in data set [1], the “LC50 with 95% confidence limit (ppm) susceptible strain” value is given as 0.55 (0.51-0.59) ppm. Besides, the “LC50 with 95% confidence limit (ppm) resistant strain” value in data set [2] was 49.3 (35.2-72.0) ppm.
For `CN/C(=N\[N+](=O)[O-])NCc1cnc(Cl)s1` [clothianidin] the same measures were 0.33 (0.28-0.38) ppm and 904 (478-3616) ppm.
For `CN/C(=N/CC1CCOC1)N[N+](=O)[O-]` (centres unmarked) [dinotefuran], in that order: 9.95 (8.21-12.5) ppm and 538 (435-696) ppm.
For `CCN(Cc1ccc(Cl)nc1)/C(=C/[N+](=O)[O-])NC` [nitenpyram] the same measures were 1.26 (1.03-1.61) ppm and 237 (93.7-3566) ppm.
With `CC(=O)N1C(=O)N(NCc2cccnc2)Cc2cc(C(F)(C(F)(F)F)C(F)(F)F)ccc21` [pyrifluquinazon, 1-acetyl-1,2,3,4-tetrahydro-3-[(3-pyridylmethyl)amino]-6-[1,2,2,2-tetrafluoro-1-(trifluoromethyl)ethyl]quinazolin-2-one], the “LC50 with 95% confidence limit (ppm) susceptible strain” value in data set [1] is 0.17 (0.13-0.22) ppm. Further, the “LC50 with 95% confidence limit (ppm) resistant strain” value in data set [2] was 0.09 (0.06-0.13) ppm.
In the case of `N#C/N=C1\SCCN1Cc1ccc(Cl)nc1` [thiacloprid], in data set [1], the “LC50 with 95% confidence limit (ppm) susceptible strain” value was 0.38 (0.34-0.42) ppm. Further, the “LC50 with 95% confidence limit (ppm) resistant strain” value in data set [2] is more than 1000 ppm.
For `CN1COCN(Cc2cnc(Cl)s2)/C1=N\[N+](=O)[O-]` [thiamethoxam], in that order: 0.35 (0.3-0.41) ppm and 148 (128-172) ppm.
